Data reported in PubChem BioAssay AID330 (DTP/NCI, 2004).
Several values for one entry are separate records, joined by “and”; a condition that tells them apart may be missing. Equal values may be shown once. Toxic doses and inconclusive results are not listed. How the source made its calls: active means survival T/C of 150% or more; inactive means T/C below 125% in these data.

Test system: P388 leukemia ip, CD2F1 mice, survival T/C
Assay: NCI In Vivo Anticancer Drug Screen. Data for tumor model P388 Leukemia (intraperitoneal) in CD2F1 (CDF1) mice
Settings: endpoint: median survival time, higher = longer survival
Method in brief: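 Mice carrying the transplanted tumor received test compound or vehicle. Survival was recorded in each group, and the value is the treated-group measurement divided by that of the vehicle-treated control group.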

[1] = dose: 60.0 mg/kg/injection, schedule: Q01DX005 (ip), vehicle: saline with Tween-80
[2] = dose: 120.0 mg/kg/injection, schedule: Q01DX005 (ip), vehicle: saline with Tween-80
[3] = dose: 12.5 mg/kg/injection, schedule: Q01DX005 (ip), vehicle: saline with Tween-80
[4] = dose: 25.0 mg/kg/injection, schedule: Q01DX005 (ip), vehicle: saline with Tween-80
[5] = dose: 50.0 mg/kg/injection, schedule: Q01DX005 (ip), vehicle: saline with Tween-80
[6] = dose: 50.0 mg/kg/injection, schedule: Q01DX009 (ip), vehicle: saline with Tween-80
[7] = dose: 100.0 mg/kg/injection, schedule: Q01DX009 (ip), vehicle: saline with Tween-80
[8] = dose: 200.0 mg/kg/injection, schedule: Q01DX009 (ip), vehicle: saline with Tween-80
[9] = dose: 100.0 mg/kg/injection, schedule: Q01DX005 (ip), vehicle: saline with Tween-80

Measured: T/C

CCOP(=O)(O)C1CCCC(C)[N-]1.CCOP(=O)(O)C1CCCC(C)[N-]1.[Mn+2] (stereo not given)
inactive: dose: 100.0 mg/kg/injection, schedule: Q04DX003 (ip), vehicle: Klucel (hydroxypropylcellulose) (HPC) 100 % of control | dose: 200.0 mg/kg/injection, schedule: Q04DX003 (ip), vehicle: Klucel (hydroxypropylcellulose) (HPC) 111 % of control

CCc1[nH]c(=O)nc(N)c1-c1ccc(N2CCCCC2)c([N+](=O)[O-])c1
inactive: [1] 93 % of control | [2] 96 % of control | dose: 240.0 mg/kg/injection, schedule: Q01DX005 (ip), vehicle: saline with Tween-80 97 % of control

S=C(NCCCN1CCN(CCCNC(=S)Nc2c3ccccc3nc3ccccc23)CC1)Nc1c2ccccc2nc2ccccc12
inactive: dose: 6.25 mg/kg/injection, schedule: Q01DX005 (ip), vehicle: saline with Tween-80 98 % of control | [3] 100 % of control and 110 % of control | [4] 114 % of control and 116 % of control | [5] 119 % of control and 120 % of control

CC(=NCCN=C(C)c1ccccc1O)c1ccccc1O.[Cu]
inactive: [6] 105 % of control | [7] 99 % of control | [8] 89 % of control

CC(C)(C)c1ccc(C(=O)NNC(O)C(F)(F)F)cc1 (stereo not given)
inactive: dose: 100.0 mg/kg/injection, schedule: Q04DX002 (ip), vehicle: Klucel (hydroxypropylcellulose) (HPC) 101 % of control | dose: 200.0 mg/kg/injection, schedule: Q04DX002 (ip), vehicle: Klucel (hydroxypropylcellulose) (HPC) 103 % of control

CCOC(=O)CC1CC(=O)C(C(=O)OCC)C=C1C(=O)OCC (stereo not given)
inactive: [5] 94 % of control | [9] 98 % of control

O=c1[nH]c2ccccc2n1CCCN1CCC(n2c(=O)[nH]c3cc(Cl)ccc32)CC1
inactive: dose: 50.0 mg/kg/injection, schedule: Q01DX009 (ip), vehicle: saline 90 % of control | dose: 100.0 mg/kg/injection, schedule: Q01DX009 (ip), vehicle: saline 91 % of control | dose: 200.0 mg/kg/injection, schedule: Q01DX009 (ip), vehicle: saline 88 % of control

N#CC(C(O)c1ccccc1)N1CCCCC1 (stereo not given)
inactive: dose: 50.0 mg/kg/injection, schedule: Q01DX009 (ip), vehicle: suspension in saline 111 % of control | dose: 100.0 mg/kg/injection, schedule: Q01DX009 (ip), vehicle: suspension in saline 100 % of control | dose: 200.0 mg/kg/injection, schedule: Q01DX009 (ip), vehicle: suspension in saline 92 % of control

C1OC2OCC1O2
inactive: [6] 87 % of control | [7] 93 % of control | [8] 105 % of control

Oc1ccc(C2c3ccccc3Oc3ccccc32)c2ccccc12
inactive: dose: 100.0 mg/kg/injection, schedule: Q01DX001 (ip), vehicle: gum acacia 93 % of control | dose: 200.0 mg/kg/injection, schedule: Q01DX001 (ip), vehicle: gum acacia 105 % of control | dose: 400.0 mg/kg/injection, schedule: Q01DX001 (ip), vehicle: gum acacia 101 % of control

Cc1cc(N)c(C)c(C)c1O
inactive: dose: 25.0 mg/kg/injection, schedule: Q01DX009 (ip), vehicle: saline with Tween-80 113 % of control | dose: 25.0 mg/kg/injection, schedule: Q04DX003 (ip), vehicle: saline with Tween-80 100 % of control | [6] 118 % of control | dose: 50.0 mg/kg/injection, schedule: Q04DX003 (ip), vehicle: saline with Tween-80 110 % of control | dose: 100.0 mg/kg/injection, schedule: Q04DX003 (ip), vehicle: saline with Tween-80 110 % of control

C=CCc1ccccc1/C=N/NS(=O)(=O)c1ccc(C)cc1
inactive: dose: 100.0 mg/kg/injection, schedule: Q04DX002 (ip), vehicle: saline with Tween-80 100 % of control | dose: 200.0 mg/kg/injection, schedule: Q04DX002 (ip), vehicle: saline with Tween-80 98 % of control | dose: 400.0 mg/kg/injection, schedule: Q04DX002 (ip), vehicle: saline with Tween-80 97 % of control

O=C(Oc1ccccc1)N1CCCSC1=S
inactive: [1] 98 % of control | [2] 100 % of control

CC(C)SC(=S)Nc1cc(Cl)c(Cl)cc1Cl
inactive: [6] 98 % of control | [7] 102 % of control

O=C1C2=C(Nc3cc([N+](=O)[O-])ccc3N2)OC1c1c[nH]c2ccc(COc3ccccc3)cc12 (stereo not given)
inactive: [1] 93 % of control | [2] 94 % of control

COC(=O)c1cc(C=C(C)C)[nH]c(=O)c1C#N
inactive: dose: 30.0 mg/kg/injection, schedule: Q01DX005 (ip), vehicle: saline 99 % of control | dose: 60.0 mg/kg/injection, schedule: Q01DX005 (ip), vehicle: saline 100 % of control and 107 % of control | dose: 120.0 mg/kg/injection, schedule: Q01DX005 (ip), vehicle: saline 107 % of control

COc1ncc[n+]([O-])n1
inactive: [6] 103 % of control | [7] 100 % of control and 108 % of control and 111 % of control | [8] 100 % of control and 102 % of control and 123 % of control | dose: 400.0 mg/kg/injection, schedule: Q01DX009 (ip), vehicle: saline with Tween-80 93 % of control

Cc1ccc2nc(N/N=C/c3cccc(C)n3)cc(C)c2c1
inactive: [3] 100 % of control | [4] 90 % of control | [5] 100 % of control and 93 % of control | [9] 100 % of control

COc1ccc(/C=N/NC(=S)NC23CC4CC(CC(C4)C2)C3)cc1OC
inactive: dose: 15.0 mg/kg/injection, schedule: Q01DX005 (ip), vehicle: saline with Tween-80 93 % of control | dose: 30.0 mg/kg/injection, schedule: Q01DX005 (ip), vehicle: saline with Tween-80 89 % of control | [1] 89 % of control

CCSC(=Nc1nc2ccc([N+](=O)[O-])cc2s1)SCC
inactive: dose: 6.25 mg/kg/injection, schedule: Q01DX009 (ip), vehicle: Klucel (hydroxypropylcellulose) (HPC) 104 % of control | dose: 12.5 mg/kg/injection, schedule: Q01DX009 (ip), vehicle: Klucel (hydroxypropylcellulose) (HPC) 111 % of control | dose: 25.0 mg/kg/injection, schedule: Q01DX009 (ip), vehicle: Klucel (hydroxypropylcellulose) (HPC) 98 % of control

Cn1c(=O)c2c(ncn2-c2ccc(N)cc2Cl)n(C)c1=O
inactive: dose: 25.0 mg/kg/injection, schedule: Q01DX005 (ip), vehicle: distilled water + alcohol 100 % of control | dose: 50.0 mg/kg/injection, schedule: Q01DX005 (ip), vehicle: distilled water + alcohol 100 % of control and 101 % of control | dose: 100.0 mg/kg/injection, schedule: Q01DX005 (ip), vehicle: distilled water + alcohol 104 % of control | dose: 200.0 mg/kg/injection, schedule: Q01DX005 (ip), vehicle: distilled water + alcohol 99 % of control

O=NNc1ccc2ccccc2n1
inactive: dose: 3.12 mg/kg/injection, schedule: Q01DX009 (ip), vehicle: water 122 % of control | dose: 25.0 mg/kg/injection, schedule: Q01DX009 (ip), vehicle: water 91 % of control and 94 % of control

CCOC(=O)Cn1ccnc1[N+](=O)[O-]
inactive: dose: 12.5 mg/kg/injection, schedule: Q01DX009 (ip), vehicle: distilled water + Tween-80 102 % of control | dose: 25.0 mg/kg/injection, schedule: Q01DX009 (ip), vehicle: distilled water + Tween-80 97 % of control | dose: 50.0 mg/kg/injection, schedule: Q01DX009 (ip), vehicle: distilled water + Tween-80 100 % of control | dose: 100.0 mg/kg/injection, schedule: Q01DX009 (ip), vehicle: distilled water + Tween-80 102 % of control | dose: 200.0 mg/kg/injection, schedule: Q01DX009 (ip), vehicle: distilled water + Tween-80 109 % of control

O=C(/C=C/C1CCCC(O)C1)C1CCCCC1 (stereo not given)
inactive: [5] 91 % of control | [9] 89 % of control | dose: 200.0 mg/kg/injection, schedule: Q01DX005 (ip), vehicle: saline with Tween-80 91 % of control

CN(C)c1nc(Cl)c2cc(Cl)ccc2n1
inactive: dose: 60.0 mg/kg/injection, schedule: Q01DX005 (ip), vehicle: Klucel (hydroxypropylcellulose) (HPC) 100 % of control | dose: 120.0 mg/kg/injection, schedule: Q01DX005 (ip), vehicle: Klucel (hydroxypropylcellulose) (HPC) 99 % of control
